Data from publication PMC10142505, “Synthesis, Evaluation of Enzyme Inhibition and Redox Properties of Potential Dual COX-2 and 5-LOX Inhibitors” (Pharmaceuticals, 2023).
Marks after values point to notes of the source that are not given here.

Tested on: human serum pool
Experiment: Redox activity (oxy score from TOS, PAB, TAS, SHG) in vitro in human serum pool
Conditions: 37 °C, median (interquartile range); for Oxy score (OS), 2 h incubation, TBH added / Oxy score (OS), 24 h incubation, TBH added: with TBH added; for Oxy score (OS), 2 h incubation / Oxy score (OS), 24 h incubation: without TBH; for Oxy score (OS), 2 h incubation: average of five concentrations
Method: The remains of the serum samples were taken from healthy subjects after biochemical analysis; these subjects participated in regular medical examinations at the Military Medical Academy in Belgrade and consented to the formation of a serum pool. Neither the patients’ data nor their identities were used. Serum pool samples were prepared and aliquoted (450 µL portions) according to the routine procedure for in-house controle samples and preserved at the -80 °C until analysis. Five serial dilutions of the tested compounds (concentrations: 1000 µM, 500 µM, 250 µM, 125 µM and 62.5 µM) were added alone (50 µL) or in combination (25 µL) with oxidant TBH (25 µM) into 450 µL of serum. The compounds were dissolved in dimethyl sulfoxide (DMSO) for stock solution (1000 µM), while a PBS buffer (phosphate buffered saline) pH = 7.4 was used for serial dilutions (500 µM, 250 µM, 125 µM and 62.5 µM). Deionized water was used as a blank. DMSO and buffer pH = 7.4 were used as a control, while trolox solution (2 mmol/L) was used as a standard. All samples were incubated in duplicate for 2 h and 24 h at 37 °C.
Oxidative stress parameters (total antioxidative status (TAS), total oxidative status (TOS), total concentration of sulfhydryl group (SHG) and prooxidative–antioxidative balance (PAB)) were determined in order to calculate prooxidative score, antioxidative score and oxy score (OS). These parameters were determined in serum.
Total antioxidative status (TAS) was measured using Erel’s method, which was further optimized by Kotur-Stevuljevic et al. in 2015 [34]. ABTS (2,2-azino-bis(3-ethyl-benzthiazoline-6-sulfonic acid) is oxidized to a green-colored ABTS^+ cation by hydrogen peroxide in the acetate buffer (pH = 3.6). This stable cation is chromogen, and the presence of antioxidants in the samples causes its discoloration proportional to their concentrations. The absorbance was measured using a SPECTROstar Nano Microplate Reader (BMG Labtech, Ortenberg, Germany). The reaction was calibrated with Trolox and the TAS values are expressed as mmol trolox equivalent/L.
Total oxidative status (TOS) was measured using Erel’s method. Here, a ferrous ion-o-dianisidine complex is oxidized to ferric ion by the oxidants present in the sample. The ferric ion forms a colored complex with xylenol orange in an acidic environment and in the presence of glycerol. The intensity of the color of the formed complex is proportional to the total contents of oxidants in the sample. The absorbance was measured at 560 nm using a SPECTROstar Nano Microplate Reader (BMG Labtech, Ortenberg, Germany). The reaction was calibrated with hydrogen peroxide and the TOS values are expressed as µmol H2O2 equivalent/L.
Prooxidant–antioxidant balance (PAB) was measured according to procedures in the literature. Here, hydrogen peroxide is determined in the presence of antioxidants in the sample. Both of them (hydrogen peroxide and antioxidants (including uric acid)) react with chromogen TMB (3,3′,5,5′-tetramethylbenzidine) simultaneously. The hydrogen peroxide and chromogen reaction is enzymatically catalyzed with peroxidase, while the antioxidants–chromogen reaction is non-enzymatic. The intense blue color, produced as a result of the reaction between hydrogen peroxide and TMB, is decolorized by the reaction of the antioxidant with the TMB. The resulting color (result of two competitive reactions) is proportional to the ratio of antioxidants to prooxidants. The absorbance was measured at 450 nm. Different ratios of hydrogen peroxide and uric acid solutions were used to make a standard curve. The PAB results are expressed in hydrogen peroxide concentrations.
Total Sulfydryl Groups Content (SHG) was measured using a modified version of Ellman’s method. This method is based on the reaction between DTNB ([…]) and aliphatic thiol compounds in an alkaline environment (pH = 9.0). […]

SMILES | Oxy score (OS), 2 h incubation, TBH added | Oxy score (OS), 2 h incubation | Oxy score (OS), 24 h incubation, TBH added | Oxy score (OS), 24 h incubation
Cc1ccc(-c2cc(C(F)(F)F)nn2-c2ccc(S(N)(=O)=O)cc2)cc1 [Celecoxib, reference compound] | 7.94 (6.97–8.45) | 5.66 (2.92–12.90) | 4.95 (4.57–10.25) | 2.77 (2.46–3.27)
Cc1cc(C(C)(C)C)c(O)c(C(C)(C)C)c1 [BHT, Butylated hydroxytoluene, reference compound] | 7.98 (6.77–8.81) | 3.08 (2.73–3.26) | 4.51 (4.38–7.22) | 2.62 (2.14–3.22)
CC(c1cc2ccccc2s1)N(O)C(N)=O (centres unmarked) [Zileuton, reference compound] | 6.87 (6.52–7.18) | 2.60 (−7.86–7.54) | 8.80 (5.71–13.66) | 3.61 (2.47–4.93)
NC(N)=O [Urea, urea, reference compound] | 8.11 (7.61–8.79) | 3.48 (3.44–4.08) | 5.19 (4.96–14.00) | 4.60 (3.62–6.02)
Cc1c(C)c2c(c(C)c1O)CCC(C)(C(=O)O)O2 (centres unmarked) [Trolox, reference compound] |  | 0.54 (−0.66–2.43) |  | 0.07 (−0.59–0.59) *
CC(C)(C)OO [TBH, tert-butyl hydroperoxide, reference compound] |  | 6.40 (4.66–11.59) |  | 6.43 (4.73–12.00)
